How the values were obtained:
Conditions in all cases: 72 h
U2OS [1] = assay: drug sensitivity score (DSS) for viability; higher = more toxic; extreme values may be limits of the assay
Caco-2 [2] = assay: as above
Vero E6 [3] = assay: as above
U2OS [4] = assay: relative viability EC50 (midpoint between 100% and the lowest measured viability); higher = less toxic
Caco-2 [5] = assay: as above
Vero E6 [6] = assay: as above
U2OS [7] = assay: cell viability relative to DMSO; higher = less toxic
Caco-2 [8] = assay: as above
Vero E6 [9] = assay: as above
HepG2 [10] = assay: drug sensitivity score (DSS) for viability; higher = more toxic; extreme values may be limits of the assay
HepG2 [11] = assay: relative viability EC50 (midpoint between 100% and the lowest measured viability); higher = less toxic
HepG2 [12] = assay: cell viability relative to DMSO; higher = less toxic
Calu-3 [13] = assay: drug sensitivity score (DSS) for viability; higher = more toxic; extreme values may be limits of the assay
Calu-3 [14] = assay: relative viability EC50 (midpoint between 100% and the lowest measured viability); higher = less toxic
Calu-3 [15] = assay: cell viability relative to DMSO; higher = less toxic

Structure (SMILES)	drug sensitivity score (U2OS [1])	drug sensitivity score (Caco-2 [2])	drug sensitivity score (Vero E6 [3])	relative viability EC50 (U2OS [4]) [µM]	relative viability EC50 (Caco-2 [5]) [µM]	relative viability EC50 (Vero E6 [6]) [µM]	cell viability (U2OS [7]; 1 nM) [%]	cell viability (U2OS [7]; 10 nM) [%]	cell viability (U2OS [7]; 100 nM) [%]	cell viability (U2OS [7]; 1000 nM) [%]	cell viability (U2OS [7]; 10000 nM) [%]	cell viability (Caco-2 [8]; 1 nM) [%]	cell viability (Caco-2 [8]; 10 nM) [%]	cell viability (Caco-2 [8]; 100 nM) [%]	cell viability (Caco-2 [8]; 1000 nM) [%]	cell viability (Caco-2 [8]; 10000 nM) [%]	cell viability (Vero E6 [9]; 1 nM) [%]	cell viability (Vero E6 [9]; 10 nM) [%]	cell viability (Vero E6 [9]; 100 nM) [%]	cell viability (Vero E6 [9]; 1000 nM) [%]	cell viability (Vero E6 [9]; 10000 nM) [%]	drug sensitivity score (HepG2 [10])	relative viability EC50 (HepG2 [11]) [µM]	cell viability (HepG2 [12]; 1 nM) [%]	cell viability (HepG2 [12]; 10 nM) [%]	cell viability (HepG2 [12]; 100 nM) [%]	cell viability (HepG2 [12]; 1000 nM) [%]	cell viability (HepG2 [12]; 10000 nM) [%]	drug sensitivity score (Calu-3 [13])	relative viability EC50 (Calu-3 [14]) [µM]	cell viability (Calu-3 [15]; 1 nM) [%]	cell viability (Calu-3 [15]; 10 nM) [%]	cell viability (Calu-3 [15]; 100 nM) [%]	cell viability (Calu-3 [15]; 1000 nM) [%]	cell viability (Calu-3 [15]; 10000 nM) [%]
COc1cc(CNC(=O)CCCC/C=C/C(C)C)ccc1O [capsaicin]	0	0	0	> 10	> 10	> 10	106	100	101	98.4	100	116	90.9	103	91.2	107	96.4	100	106	107	102	–	–	–	–	–	–	–	–	–	–	–	–	–	–
COc1cc(NS(=O)(=O)c2ccc(N)cc2)ncn1 [sulfamonomethoxine]	0	0	0	> 10	> 10	> 10	101	99.7	101	102	100	92.6	102	95.4	98.4	98.7	106	106	106	104	97	0	> 10	108	104	115	107	90.9	–	–	–	–	–	–	–
CC(=O)N[C@H](Cc1ccc2ccccc2c1)C(=O)N[C@H](Cc1ccc(Cl)cc1)C(=O)N[C@H](Cc1cccnc1)C(=O)N[C@@H](CO)C(=O)N[C@@H](Cc1ccc(O)cc1)C(=O)N[C@H](CCCNC(N)=O)C(=O)N[C@@H](CC(C)C)C(=O)N[C@@H](CCCNC(=N)N)C(=O)N1CCC[C@H]1C(=O)N[C@H](C)C(N)=O [cetrorelix]	0	0	0	> 10	> 10	> 10	102	93.6	96.9	95.1	100	117	95.5	110	114	104	105	101	105	99.3	90.3	0.6	> 10	102	93.7	101	97.8	83.1	–	–	–	–	–	–	–
CC(C)C(N)=O [isobutyramide]	0	0	0	> 10	> 10	> 10	102	97.6	101	98.8	104	95.1	95.6	97.9	90.2	98.2	105	106	96.2	98	105	0	> 10	115	99.1	90.3	101	96.8	–	–	–	–	–	–	–
NC(=O)c1nc(F)cnc1O [Favipiravir]	–	–	–	–	–	–	–	–	–	–	–	–	–	–	–	–	–	–	–	–	–	0	> 10	104	102	109	91.8	98.2	0	> 10	101	93.2	92.5	94.6	107
O=C(O)[C@@H](S)[C@@H](S)C(=O)O [dimercaptosuccinic-acid]	0	0	0	> 10	> 10	> 10	101	98.2	101	101	105	107	90.7	94.2	95.8	110	99.7	102	100	101	104	–	–	–	–	–	–	–	–	–	–	–	–	–	–
CC(=C\c1ccc(Cl)cc1)/C(C)=N/O [AP-18]	0	0	0	> 10	> 10	> 10	100	106	97.6	103	100	99.5	104	90.4	98.1	95.7	104	106	102	105	99.3	0	> 10	103	95.3	89.6	101	107	–	–	–	–	–	–	–
Cn1ncnc1COc1nn2c(-c3cc(F)ccc3F)nnc2cc1C(C)(C)C	0	–	0	–	–	–	–	–	–	–	–	–	–	–	–	–	–	–	–	–	–	0	–	–	–	–	–	–	0	–	–	–	–	–	–
Nc1cc(N2CCCCC2)nc(N)[n+]1[O-] [minoxidil]	0	–	0	–	–	–	–	–	–	–	–	–	–	–	–	–	–	–	–	–	–	0	–	–	–	–	–	–	0	–	–	–	–	–	–
NCCNS(=O)(=O)c1ccc(Cl)c2ccncc12 [CKI-7]	0	0.1	–	> 10	> 10	–	95.6	100	98.8	102	98.7	105	110	102	102	86.1	–	–	–	–	–	0	> 10	110	94.9	105	102	107	–	–	–	–	–	–	–
CCS(=O)(=O)N1CC(CC#N)(n2cc(-c3ncnc4[nH]ccc34)cn2)C1 [baricitinib]	0	0	0	> 10	> 10	> 10	95.4	98.5	95.1	94.4	96.4	95.6	102	92.9	97	99.7	98.6	100	102	102	101	0	> 10	98.6	106	91.1	107	90.3	–	–	–	–	–	–	–

Source: the supplement of paper PMC13380429
